Data reported in PMC11161644, “An effective and rapidly degradable disinfectant from disinfection byproducts” (Nature Communications, 2024).
“And” between values parts separate entries of the source, which are not always exact repeats. Equal entries are not always repeated. Where two headings read alike, the source gives them in different places.

Experiments:
S. aureus (ATCC 25923) = assay: Inactivation of S. aureus (contact time 5 min); type: cell-based, Staphylococcus aureus; settings: Staphylococcus aureus, ATCC25923, 5 min, pH 7.2, read-out: Log (N/N0), S. aureus; dose 300 mg L-1; pH 7.2; contact time 5 min
Protocol: (§1) The chemicals and reagents used are detailed in Supplementary Note 1. The bacteria E. coli (ATCC 25922) and S. aureus (ATCC 25923) were cultured aerobically in Luria-Bertani broth (Sigma-Aldrich) and Tryptone Soya broth (Oxoid), respectively, at 37 °C for 16 h. The fungus C. albicans (ATCC 14053) was aerobically cultured in Sabouraud Dextrose broth (Difco) at 37 °C for 24 h. The microorganism cells were harvested by centrifugation at 1200×g (10 min, 4 °C) and resuspended in phosphate-buffered saline (PBS, 10 mM, pH 7.2). The disinfection experiments were performed in PBS solutions (10 mM, pH 7.2) with an initial concentration of E. coli, S. aureus, or C. albicans of 10^6‒10^7 cells per milliliter. A contact time of 5 min was used in accordance with the recommended time range of 0.25–10 min by USEPA for surface disinfection. Preliminary tests were conducted to determine the appropriate range of DBP doses. The appropriate dose range was established when the lowest and highest doses could achieve <1-log and >3-log of microbial inactivation, respectively. Based on the preliminary results, a series of doses of DBPs were added to the cell suspensions at room temperature (22 ± 1 °C). After the contact time of 5 min, the microorganism cells were enumerated following a membrane filter method. Briefly, serial 10-fold dilutions were conducted for the disinfected samples and the control sample without disinfection. Each diluted suspension was subjected to filtration through 0.45-μm membrane, which was then placed on a petri dish. The Petri dishes containing E. coli, S. aureus, and C. albicans were incubated in m-FC medium (Becton Dickinson & Co) at 45 °C for 24 h, in Tryptone Soya broth at 37 °C for 24 h and in Sabouraud Dextrose broth at 37 °C for 24 h, respectively. After incubation, the colony-forming units within a statistically reasonable range (20–80) were counted.

[1] = system: bacteriophage MS2 (ATCC 15597-B1); assay: Inactivation of bacteriophage MS2 (double-layer agar, contact time 5 min); type: cell-based; settings: Escherichia phage MS2, ATCC15597, 5 min, pH 7.2, read-out: Log (N/N0), MS2; dose 300 mg L-1; pH 7.2; contact time 5 min
Protocol: The bacteriophage MS2 (ATCC 15597-B1) was propagated in the host E. coli (ATCC 15597) in Tryptone Soya broth at 37 °C for 16 h. The viruses were separated from the bacterial debris and purified by centrifuging the phage culture (4000×g, 10 min, 4 °C) and filtering the lysate with a 0.2 μm polyethersulfone sterile filter. The filtrate was then diluted in PBS (10 mM, pH 7.2) to an initial MS2 concentration of 10^9‒10^10 plaque-forming units […]. To initiate the disinfection experiments, a series of DBP doses were added to the MS2 suspension at room temperature (22 ± 1 °C). […] Briefly, serial 10-fold dilutions were conducted for the disinfected samples and the control sample without disinfection. Each dilution was mixed with the host E. coli in the soft agar and the mixture was immediately spread onto a Petri dish with Tryptone Soya agar. After the Petri dishes were incubated at 37 °C for 16 h, the plaque-forming units were counted. The disinfection experiments were performed in duplicate. All the materials for the disinfection experiments were autoclaved before use.

C. albicans (ATCC 14053) = assay: Inactivation of C. albicans (contact time 5 min); type: cell-based, Candida albicans; settings: Candida albicans, ATCC14053, 5 min, pH 7.2, read-out: Log (N/N0), C. albicans; dose 300 mg L-1; pH 7.2; contact time 5 min
Protocol: as §1

P. dumerilii embryos = assay: Developmental toxicity assay with P. dumerilii embryos, dilution factor of in-use concentration (EC50,DF), also after degradation in darkness; type: in vivo, Platynereis dumerilii
Source text: The DBP doses for 3-log E. coli reduction (pH 7.2) were set as the in-use concentrations, which were serially diluted and added to the P. dumerilii embryos at 12-h postfertilization. A dilution factor was defined as the ratio of the in-use concentration to the exposure concentration. Each exposure set contained a control sample (i.e., the embryos at 12-h postfertilization developed in seawater without the addition of DBPs). By 24-h postfertilization, normally developed embryos should have reached the first larval stage. An inverted stereomicroscope (×40 magnification) was used to observe the larvae. The normal development percentage was calculated as the ratio of normally developed embryos to total embryos. By plotting the curve of the normal development percentage versus the dilution factor, the EC50,DF value (i.e., the dilution factor corresponding to 50% of the normal development percentage of the control sample) was obtained using SigmaPlot 12. The developmental toxicity test was conducted in duplicate.

[2] = Degradation in seawater with simulated solar irradiation; settings: for half-life at 10 mg L−1: buffer, pH 8.2; for Ln (C/C0): seawater pH 8.2, solar irradiation
Protocol: The solar photolysis experiments were conducted in a chamber equipped with eight simulated sunlight full-spectrum lamps (BlueMax 5900, Full Spectrum Solutions). The temperature in the chamber was maintained at 20 °C. The total intensity of simulated sunlight was determined using a digital photometer (DT-1010B, Shenzhen Golden Octopus, China). Quartz flasks were positioned in the chamber where the total intensity of simulated sunlight was 4.79 ± 0.04 mW cm^−2 for each quartz flask. […] A DBP was added at 10 mg L^−1 to 50 mL pretreated seawater (pH 8.2) in the quartz flasks and exposed to the simulated solar irradiation for 0‒96 h. Every 8 h, the quartz flasks were rotated in and out of the chamber, and the sample volume was determined and adjusted with ultrapure water to account for any water evaporation. During the solar irradiation experiments, the sample was adjusted to pH 6.2 and 7.2 or maintained at pH 8.2 by adding 4 mM phosphate buffer (pH 6.2, 7.2, and 8.2, respectively).
(§2) For the DBP samples with and without sunlight, aliquots were taken at a specific reaction time. The sample aliquots were analyzed using Agilent high-performance liquid chromatography (HPLC) equipped with a Poroshell 120 EC-C18 column (4.6 × 150 mm, 4 µm particle size, Agilent) and a UV detector. The mobile phase, consisting of water (pre-adjusted to pH 2 with phosphoric acid) and acetonitrile at 50/50 (v/v), was applied at a flow rate of 1.0 mL min^−1. PCMX, 2,4-dihalophenols and 5-halosalicylic acids were detected at the wavelength of 230 nm. 2,5-Dihalohydroquinones and 2,6-DCQ were detected at the wavelength of 280 nm. All the degradation experiments were conducted in duplicate.

[3] = Degradation in seawater in darkness (pH 6.2, 7.2, 8.2); settings: for Ln (C/C0): seawater pH 8.2, darkness
Protocol: To study the DBP degradation in seawater in darkness, a DBP was added at 10 mg L^−1 to 50 mL pretreated seawater (pH 8.2) in the quartz flasks. The flasks were wrapped with aluminum foil to simulate the dark condition. The samples were kept at 20 °C in darkness for 0‒120 h, during which the sample was adjusted to pH 6.2 and 7.2 or maintained at pH 8.2 by adding 4 mM phosphate buffer (pH 6.2, 7.2, and 8.2, respectively).
as §2

E. coli (ATCC 25922) = assay: Inactivation of E. coli by disinfectants (membrane filter enumeration, contact time 5 min); type: cell-based, Escherichia coli; settings: for log reduction at 350 µg/mL / EC (3-log inactivation) / log reduction at 1200 µg/mL: Escherichia coli, ATCC25922, 5 min; for log reduction at 350 µg/mL: dose 350 mg L-1; for log reduction at 350 µg/mL / log reduction at 1200 µg/mL: 5 min; for EC (3-log inactivation): pH 7.2, read-out: Dose for achieving 3-log inactivation of E. coli; for E. coli inactivation rate constant k: pH 7.2, contact time 5 min; for log reduction at 1200 µg/mL: dose 1200 mg L-1
Protocol: as §1
The impact of pH on the disinfection efficiencies of DBPs was examined. E. coli (ATCC 25922) was used as the test strain. The disinfection experiments were performed in 10 mM PBS solutions (pH 6.2, 7.2, and 8.2) with an initial E. coli concentration of 10^6‒10^7 cells per milliliter. To initiate the disinfection, a DBP was dosed with a bacteria suspension at a predetermined concentration. After the given contact time (5 min) at room temperature (22 ± 1 °C), the bacteria were enumerated following the membrane filter method. The bacteria concentrations in the 10 mM PBS solutions (pH 6.2, 7.2, and 8.2) without the addition of DBPs were used as controls.

[4] = pH 6.2, read-out: Log (N/N0), E. coli, pH 6.2
[5] = pH 7.2, read-out: Log (N/N0), E. coli, pH 7.2
[6] = pH 8.2, read-out: Log (N/N0), E. coli, pH 8.2

`Oc1ccc(Br)cc1Br` [2,4-DBPh, 2,4-dibromophenol] gave a log reduction at 300 µg/mL (S. aureus (ATCC 25923)) of 0.669, a log reduction at 300 µg/mL [1] of 0.966 and a log reduction at 300 µg/mL (C. albicans (ATCC 14053)) of 1.67. The “Normal development (%)” value (P. dumerilii embryos; dilution factor 11.1486) was 0%, the “Normal development (%)” value (P. dumerilii embryos; dilution factor 13.3783) was 15.2624% and 20.2196% and the “Normal development (%)” value (P. dumerilii embryos; dilution factor 16.7229) was 45.6306% and 47.4814%. The “Normal development (%)” value (P. dumerilii embryos; dilution factor 22.2972) was 71.5034% and 77.6566%, the “Normal development (%)” value (P. dumerilii embryos; dilution factor 33.4458) was 83.2326% and 85.1374% and the “Normal development (%)” value (P. dumerilii embryos; dilution factor 66.8916) was 89.9171% and 84.7809%. The “Normal development (%)” value (P. dumerilii embryos; dilution factor 133.783) was 89.4695% and 80.5305%, the half-life at 10 mg L−1 [2] was 35 h and the “Ln (C/C0)” value ([2]; 0 h) was 0. For the same molecule, the “Ln (C/C0)” value ([3]; 0 h) was 0, the log reduction at 350 µg/mL (E. coli (ATCC 25922); [4]) was 3.35 and the EC (3-log inactivation) (E. coli (ATCC 25922)) was 341 µg/mL. The log reduction at 350 µg/mL (E. coli (ATCC 25922); [5]) was 3.26, the log reduction at 350 µg/mL (E. coli (ATCC 25922); [6]) was 3.57 and the “E. coli inactivation rate constant k” value (E. coli (ATCC 25922)) was 0.28 L mg‒1 h‒1.

In the case of `Oc1cc(Cl)c(O)cc1Cl` [2,5-DCHQ, 2,5-dichlorohydroquinone], the log reduction at 300 µg/mL (S. aureus (ATCC 25923)) was 0.434, the “Normal development (%)” value (P. dumerilii embryos; dilution factor 557.542) was 8.642% and 6.061% and the “Normal development (%)” value (P. dumerilii embryos; dilution factor 1115.08) was 42.6369% and 40.0555%. The “Normal development (%)” value (P. dumerilii embryos; dilution factor 1393.85) was 77.0891% and 77.2417%, the “Normal development (%)” value (P. dumerilii embryos; dilution factor 2787.71) was 85.5556% and 87.7778% and the “Normal development (%)” value (P. dumerilii embryos; dilution factor 5575.42) was 88.6789% and 83.1961%. The half-life at 10 mg L−1 [2] was 0.12 h, the “Ln (C/C0)” value ([2]; 0 min) was 0 and the half-life at 10 mg L−1 ([3]; buffer, pH 8.2) was 7.8 min. The “Relative concentration remaining (1 at 0 min)” value ([3]; pH 6.2, degradation time 0 min) was 1, the “Relative concentration remaining (1 at 0 min)” value ([3]; pH 6.2, degradation time 15 min) was 1.022 and 0.9793 and the “Relative concentration remaining (1 at 0 min)” value ([3]; pH 6.2, degradation time 30 min) was 0.9852 and 1.003. The “Relative concentration remaining (1 at 0 min)” value ([3]; pH 6.2, degradation time 60 min) was 1.02 and 0.9636, the “Relative concentration remaining (1 at 0 min)” value ([3]; pH 6.2, degradation time 90 min) was 0.9949 and 0.9533 and the “Relative concentration remaining (1 at 0 min)” value ([3]; pH 6.2, degradation time 120 min) was 0.9685 and 0.9533. The “Relative concentration remaining (1 at 0 min)” value ([3]; pH 6.2, degradation time 180 min) was 0.9436 and 0.9061, the “Relative concentration remaining (1 at 0 min)” value ([3]; pH 6.2, degradation time 240 min) was 0.9109 and 0.8967 and the “Relative concentration remaining (1 at 0 min)” value ([3]; pH 7.2, degradation time 0 min) was 1. For the same molecule, the “Relative concentration remaining (1 at 0 min)” value ([3]; pH 7.2, degradation time 15 min) was 0.972 and 0.958, the “Relative concentration remaining (1 at 0 min)” value ([3]; pH 7.2, degradation time 30 min) was 0.8774 and 0.8538 and the “Relative concentration remaining (1 at 0 min)” value ([3]; pH 7.2, degradation time 45 min) was 0.7996 and 0.7512. The “Relative concentration remaining (1 at 0 min)” value ([3]; pH 7.2, degradation time 60 min) was 0.6873 and 0.677, the “Relative concentration remaining (1 at 0 min)” value ([3]; pH 7.2, degradation time 90 min) was 0.5344 and 0.5155 and the “Relative concentration remaining (1 at 0 min)” value ([3]; pH 7.2, degradation time 120 min) was 0.3928 and 0.369. The “Relative concentration remaining (1 at 0 min)” value ([3]; pH 7.2, degradation time 180 min) was 0.2793 and 0.2513, the “Relative concentration remaining (1 at 0 min)” value ([3]; pH 8.2, degradation time 0 min) was 1 and the “Relative concentration remaining (1 at 0 min)” value ([3]; pH 8.2, degradation time 3 min) was 0.7671 and 0.7343. For the same molecule, the “Relative concentration remaining (1 at 0 min)” value ([3]; pH 8.2, degradation time 8 min) was 0.4955 and 0.4354, the “Relative concentration remaining (1 at 0 min)” value ([3]; pH 8.2, degradation time 12 min) was 0.3245 and 0.3105 and the “Relative concentration remaining (1 at 0 min)” value ([3]; pH 8.2, degradation time 16 min) was 0.2259 and 0.2074. The “Relative concentration remaining (1 at 0 min)” value ([3]; pH 8.2, degradation time 20 min) was 0.1584 and 0.1371, the “Relative concentration remaining (1 at 0 min)” value ([3]; pH 8.2, degradation time 25 min) was 0.1047 and 0.0786 and the “Ln (C/C0)” value ([3]; 0 min) was 0. For the same molecule, the log reduction at 1200 µg/mL (E. coli (ATCC 25922); [4]) was 2.28, the EC (3-log inactivation) (E. coli (ATCC 25922)) was 946 µg/mL and the log reduction at 1200 µg/mL (E. coli (ATCC 25922); [5]) was 3.73. The log reduction at 1200 µg/mL (E. coli (ATCC 25922); [6]) was 4.18 and the “E. coli inactivation rate constant k” value (E. coli (ATCC 25922)) was 0.05 L mg‒1 h‒1.
